Measured values reported in PubChem BioAssay (NCI).
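Results reflect a 48-hour exposure of cells in 96-well plates to compound at five concentrations. Abbreviation: GI50, concentration required for 50% inhibition of growth. TGI: concentration producing complete growth inhibition.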

How the values were obtained:
Test in all cases: NCI-60 cell line screen, 48 h
786-0 renal = system: 786-0 renal
HCT-15 colon = system: HCT-15 colon
KM12 colon = system: KM12 colon
SN12C renal = system: SN12C renal
SW-620 colon = system: SW-620 colon
NCI-H226 lung = system: NCI-H226 lung
SNB-75 CNS = system: SNB-75 CNS
RPMI-8226 leukemia = system: RPMI-8226 leukemia
MDA-MB-231 breast = system: MDA-MB-231 breast
HCC-2998 colon = system: HCC-2998 colon

Structure (SMILES) | TGI (786-0 renal) | TGI (HCT-15 colon) | TGI (KM12 colon) | TGI (SN12C renal) | TGI (SW-620 colon) | TGI (NCI-H226 lung) | TGI (SNB-75 CNS) | TGI (RPMI-8226 leukemia) | TGI (MDA-MB-231 breast) | GI50 (786-0 renal) | GI50 (HCT-15 colon) | GI50 (KM12 colon) | GI50 (SN12C renal) | GI50 (SW-620 colon) | GI50 (NCI-H226 lung) | GI50 (HCC-2998 colon) | TGI (HCC-2998 colon) | GI50 (SNB-75 CNS) | GI50 (RPMI-8226 leukemia) | GI50 (MDA-MB-231 breast)
CC1=NN(c2ccc(S(=O)(=O)O)cc2)C(=O)/C1=C/c1ccc(Cl)cc1 | > 100 µM | > 100 µM | > 100 µM | > 100 µM | > 100 µM | > 100 µM | > 100 µM | > 100 µM | > 100 µM | – | – | – | – | – | – | – | – | – | – | –
[Cl][Hg][c]1ccc(Cl)s1 | 2.61 µM | 1.72 µM | 28 µM | 8.19 µM | 2.59 µM | 28.6 µM | 17.3 µM | 6.58 µM | – | 1.29 µM | 0.397 µM | 14.3 µM | 2.95 µM | 1.04 µM | 4.71 µM | 11.9 µM | 26.4 µM | 3.57 µM | 2.23 µM | –
O=c1c2ccccc2nc(/C=C(\O)c2ccncc2)n1-c1ccc(Cl)cc1 | > 100 µM | > 100 µM | > 100 µM | > 100 µM | > 100 µM | > 100 µM | 61.7 µM | > 100 µM | – | – | – | – | – | – | – | – | – | – | – | –
COC(=O)c1ccccc1N1C(=O)Cc2ccccc2C1=O | > 100 µM | > 100 µM | > 100 µM | > 100 µM | > 100 µM | > 100 µM | 74 µM | > 100 µM | – | – | – | – | – | – | – | – | > 100 µM | – | – | –
c1ccc2cc(NCNc3ccc4ccccc4c3)ccc2c1 | 40.8 µM | 46.4 µM | 38.7 µM | 25.8 µM | > 100 µM | 46.5 µM | 30.9 µM | 29.1 µM | 38.9 µM | – | – | – | – | – | – | – | – | – | – | –
CCOC(=O)Cc1csc(Nc2ccc(OCC)cc2)n1 | > 100 µM | > 100 µM | > 100 µM | > 100 µM | > 100 µM | > 100 µM | > 100 µM | > 100 µM | – | – | – | – | – | – | – | – | > 100 µM | – | – | –
CCCCC(C(=O)CCC(=O)Nc1ccc(Cl)c(Cl)c1)C(=O)C(C)C (stereo unspecified) | > 100 µM | > 100 µM | > 100 µM | > 100 µM | > 100 µM | > 100 µM | 75 µM | > 100 µM | – | – | – | – | – | – | – | – | > 100 µM | – | – | –
NC(N)=NC(N)=Nc1cnccn1 | > 100 µM | > 100 µM | > 100 µM | > 100 µM | > 100 µM | > 100 µM | > 100 µM | – | > 100 µM | – | – | – | – | – | – | – | > 100 µM | – | – | –
C(=N\Nc1ccccc1)/c1nc2ccccc2nc1/C=N/Nc1ccccc1 | 29.5 µM | 25.8 µM | 41 µM | 36.4 µM | 30.7 µM | 34.3 µM | 31.4 µM | – | – | – | – | – | – | – | – | – | 25.3 µM | – | – | –
Nc1nc(Cl)cc(NCC(O)CO)n1 (stereo unspecified) | > 100 µM | > 100 µM | > 100 µM | > 100 µM | > 100 µM | > 100 µM | > 100 µM | > 100 µM | – | – | – | – | – | – | – | – | > 100 µM | – | – | –
COc1cc(O)c2c(c1)O[C@@H]1OCC[C@H]21 | > 100 µM | > 100 µM | > 100 µM | > 100 µM | > 100 µM | > 100 µM | > 100 µM | > 100 µM | – | – | – | – | – | – | – | – | > 100 µM | – | – | –
CCC(O)C1Cc2c(C)cc3c(c2O1)C(=O)c1ccccc1C3=O (stereo unspecified) | 62.7 µM | > 100 µM | > 100 µM | > 100 µM | > 100 µM | > 100 µM | > 100 µM | 68 µM | – | – | – | – | – | – | – | – | > 100 µM | – | – | –
COc1ccc(Sc2nc3cc(N)cc(N)c3nc2-c2ccccc2)cc1 | > 100 µM | – | > 100 µM | > 100 µM | > 100 µM | – | – | 84.4 µM | > 100 µM | 52.3 µM | – | 28.4 µM | > 100 µM | 26.5 µM | – | – | – | – | 3.96 µM | > 100 µM
O=C(c1ccccc1)C(c1ccccc1)C1(O)C(=O)Nc2ccc([N+](=O)[O-])cc21 (stereo unspecified) | > 100 µM | > 100 µM | – | > 100 µM | > 100 µM | > 100 µM | > 100 µM | > 100 µM | – | – | – | – | – | – | – | – | > 100 µM | – | – | –
Nc1nc(N)c(-c2ccccc2)c(C(=O)Nc2ccccc2)n1 | > 100 µM | > 100 µM | > 100 µM | > 100 µM | > 100 µM | > 100 µM | > 100 µM | > 100 µM | – | – | – | – | – | – | – | – | – | – | – | –
CC1(Br)CC2OC3(Br)C=CC(C)(O)C2(CC1=O)C3(C)C (stereo unspecified) | > 100 µM | > 100 µM | > 100 µM | > 100 µM | > 100 µM | > 100 µM | > 100 µM | > 100 µM | – | – | – | – | – | – | – | – | > 100 µM | – | – | –
CCOC(=O)C(N=C(c1ccccc1)c1ccccc1)N(C(=O)OC(C)(C)C)C(=O)OC(C)(C)C (stereo unspecified) | > 100 µM | > 100 µM | > 100 µM | > 100 µM | > 100 µM | > 100 µM | > 100 µM | > 100 µM | – | – | – | – | – | – | – | – | > 100 µM | – | – | –
CC(=O)Nc1c(I)c(NC(C)=O)c(I)c(C(=O)O)c1I | > 100 µM | > 100 µM | > 100 µM | > 100 µM | > 100 µM | > 100 µM | – | > 100 µM | > 100 µM | > 100 µM | > 100 µM | > 100 µM | > 100 µM | > 100 µM | > 100 µM | > 100 µM | > 100 µM | – | > 100 µM | > 100 µM
COc1ccc(Cc2c(=O)[nH]nc3ccccc23)cc1 | > 100 µM | > 100 µM | > 100 µM | > 100 µM | > 100 µM | > 100 µM | > 100 µM | > 100 µM | – | – | – | – | – | – | – | – | > 100 µM | – | – | –
Cc1cc(C)n(-c2ccnc3cc(Cl)ccc23)n1 | > 100 µM | > 100 µM | > 100 µM | > 100 µM | > 100 µM | > 100 µM | > 100 µM | > 100 µM | – | – | – | – | – | – | – | – | > 100 µM | – | – | –
CCCCNC(=O)C1C(=O)N(CCCC)C(=O)/C1=N\N (stereo unspecified) | > 100 µM | > 100 µM | > 100 µM | > 100 µM | > 100 µM | > 100 µM | > 100 µM | > 100 µM | – | – | – | – | – | – | – | – | > 100 µM | – | – | –
